# Assay results as given in EP1037886B1, “TRIAZINE ANGIOGENESIS INHIBITORS” (Abbott Laboratories, priority 1997, dated 1999).
# System: Human Microvascular Endothelial Cells (HMVEC)
# Experiment: Endothelial cell migration assay (bFGF induced, modified Boyden chamber)
# Type: cell-based
# Settings: 600 nM test substance, 4 hours at 37 °C, percent inhibition of migration compared to a positive control
# Experimental: The endothelial cell migration assay was performed essentially as described by Polverini, P.J. et al., Methods Enzymol, 198: 440-450 (1991). Briefly, Human Microvascular Endothelial Cells (HMVEC) were starved overnight in DMEM (Dulbecco's Modified Eagle Medium) containing 0.1% bovine serum albumin (BSA). Cells were then harvested with trypsin and resuspended in DMEM with 0.1% BSA at a concentration of 1.5 x 10^6 cells/mL. Cells were added to the bottom of a 48-well modified Boyden chamber (Nucleopore Corporation, Cabin John, MD). The chamber was assembled and inverted, and cells were allowed to attach for 2 hours at 37 °C to polycarbonate chemotaxis membranes (5 µm pore size) that had been soaked in 0.1% gelatin overnight and dried. The chamber was then reinverted and basic fibroblast growth factor (bFGF) and test substances were added to the wells of the upper chamber (to a total volume of 50 µL); the apparatus was then incubated for 4 hours at 37 °C. Membranes were recovered, fixed and stained (DiffQuick, Fisher Scientific, Pittsburgh, PA) and the number of cells that had migrated to the upper chamber per 10 high power fields were counted. Background migration to DMEM + 0.1% BSA was subtracted and the data reported as the number of cells migrated per 10 high power fields (400X) or when results from multiple experiments were combined, as the percent inhibition of migration compared to a positive control.
row,SMILES,% inhibition at (nM)
1,"Nc1nc(N)nc(C23CC4CC(CC(C4)C2)C3)n1 [Example 52, 6-(tricyclo[3.3.1.1^3.7]decan-1-yl)-1,3,5-triazine-2,4-diamine]",100 (600) %

# Same assay, conditions: Homo sapiens, 200 nM test substance, 4 hours at 37 °C, percent inhibition of migration compared to a positive control
row,SMILES,inhibition at 0.2 µM [%]
1,"Nc1nc(N)nc(C2CC3CCC2C3)n1 (stereo not drawn) [Example 65, 6-(bicyclo[2.2.1]hept-2-yl)-1,3,5-triazine-2,4-diamine]",32

# Same assay, conditions: Homo sapiens, 500 nM test substance, 4 hours at 37 °C, percent inhibition of migration compared to a positive control
row,SMILES,inhibition at 0.5 µM [%]
1,"CNc1nc(NC)nc(-c2ccc(-c3ccccc3)cc2)n1 [Example 63, 6-[1,1'-biphenyl]-4-yl-N,N'-dimethyl-1,3,5-triazine-2,4-diamine]",79
2,"Cc1ccc(-c2nc(N)nc(N)n2)cn1 [Example 68, 6-(6-methyl-3-pyridinyl)-1,3,5-triazine-2,4-diamine]",73
3,"Nc1nc(N)nc(-c2ccc(Cl)nc2)n1 [Example 69, 6-(6-chloro-3-pyridinyl)-1,3,5-triazine-2,4-diamine]",39
4,"Nc1nc(N)nc(C2CCN(C(=O)c3ccccc3)CC2)n1 [Example 74, 6-(1-benzoyl-4-piperidinyl)-1,3,5-triazine-2,4-diamine]",82
5,"Nc1nc(N)nc(C2CCN(Cc3ccccc3)CC2)n1 [Example 75, 6-[1-(phenylmethyl)-4-piperidinyl]-1,3,5-triazine-2,4-diamine]",16
6,"CC(=O)Nc1nc(NC(C)=O)nc(-c2ccc(S(=O)(=O)c3ccccc3)cc2)n1 [Example 76, N,N'-diacetyl-6-[4-(phenylsulfonyl)phenyl]-1,3,5-triazine-2,4-diamine]",33
7,"CC(=O)Nc1nc(N)nc(-c2ccc(S(=O)(=O)c3ccccc3)cc2)n1 [Example 77, N-acetyl-6-[4-(phenylsulfonyl)phenyl]-1,3,5-triazine-2,4-diamine]",50

# Same assay, conditions: Homo sapiens, 600 nM test substance, 4 hours at 37 °C, percent inhibition of migration compared to a positive control
row,SMILES,inhibition at 0.6 µM [%]
1,"Nc1nc(N)nc(C2CN(C(c3ccccc3)c3ccccc3)C2)n1 [Example 1, 6-[1-(diphenylmethyl)-3-azetidinyl]-1,3,5-triazine-2,4-diamine]",20
2,"Nc1nc(N)nc([C@H]2CC[C@H](c3ccccc3)CC2)n1 [Example 3, trans-6-(4-phenylcyclohexyl)-1,3,5-triazine-2,4-diamine]",100
3,"Nc1nc(N)nc(-c2cccc(-n3cccc3)c2)n1 [Example 4, 6-[3-(1H-pyrrol-1-yl)phenyl]-1,3,5-triazine-2,4-diamine]",62
4,"Nc1nc(N)nc(-c2ccccc2-c2ccccc2)n1 [Example 6, 6-[1,1'-biphenyl]-2-yl-1,3,5-triazine-2,4-diamine]",95
5,"Nc1nc(N)nc(-c2ccc(-c3ccc([N+](=O)[O-])cc3)cc2)n1 [Example 7, 6-(4'-nitro[1,1'-biphenyl]-4-yl)-1,3,5-triazine-2,4-diamine]",100
6,"CCCCC[C@H]1CC[C@H](c2ccc(-c3nc(N)nc(N)n3)cc2)CC1 [Example 8, trans-6-[4-(4-pentylcyclohexyl)phenyl]-1,3,5-triazine-2,4-diamine]",30
7,"Nc1nc(N)nc(-c2ccc(Oc3ccccc3)cc2)n1 [Example 9, 6-(4-phenoxyphenyl)-1,3,5-triazine-2,4-diamine]",29
8,"Nc1nc(N)nc(-c2ccc(NC(=O)NC3CCCCC3)cc2)n1 [Example 10, N-cyclohexyl-N'-[4-(4,6-diamino-1,3,5-triazin-2-yl)phenyl]urea]",29
9,"Nc1nc(N)nc(-c2ccc(NC(=O)Nc3ccccc3)cc2)n1 [Example 12, N-[4-(4,6-diamino-1,3,5-triazin-2-yl)phenyl]-N'-phenyl urea]",36
10,"Nc1nc(N)nc(N2CCC3(CC2)OCCO3)n1 [Example 13, 6-(1,4-dioxa-8-azaspiro[4,5]dec-8-yl)-1,3,5-triazine-2,4-diamine]",53
11,"Nc1nc(N)nc(-c2ccc3ccccc3n2)n1 [Example 47, 6-(2-quinolinyl)-1,3,5-triazine-2,4-diamine]",65
12,"Nc1nc(N)nc(-c2cnc3ccccc3c2)n1 [Example 48, 6-(3-quinolinyl)-1,3,5-triazine-2,4-diamine]",55
13,"Nc1nc(N)nc(Cc2cc3ccccc3s2)n1 [Example 49, 6-(benzo[b]thien-2-ylmethyl)-1,3,5-triazine-2,4-diamine]",14
14,"CC1(C)C=Cc2cc(-c3nc(N)nc(N)n3)ccc2O1 [Example 50, 6-(2,2-dimethyl-2H-1-benzopyran-6-yl)-1,3,5-triazine-2,4-diamine]",100
15,"Nc1nc(N)nc(C2COc3ccccc3O2)n1 (stereo not drawn) [Example 51, 6-(2,3-dihydro-1,4-benzodioxin-2-yl)-1,3,5-triazine-2,4-diamine]",100
16,"Nc1nc(N)nc(-c2nccc3ccccc23)n1 [Example 53, 6-(1-isoquinolinyl)-1,3,5-triazine-2,4-diamine]",85
17,"Nc1nc(N)nc(-c2ccc3c(c2)OCCO3)n1 [Example 55, 6-(2,3-dihydro-1,4-benzodioxin-6-yl)-1,3,5-triazine-2,4-diamine]",84
18,"Nc1nc(N)nc(C23CCN(CC2)CC3)n1 [Example 56, 6-(1-azabicyclo[2.2.2]octan-4-yl)-1,3,5-triazine-2,4-diamine]",30
19,"Nc1nc(N)nc(-c2ccc(S(=O)(=O)c3ccccc3)cc2)n1 [Example 58, 6-[4-(phenylsulfonyl)phenyl]-1,3,5-triazine-2,4-diamine]",100
20,"Nc1nc(N)nc(-c2cnccn2)n1 [Example 60, 6-pyrazinyl-1,3,5-triazine-2,4-diamine]",100
21,"Nc1nc(N)nc(-c2cc(Cl)ccc2Cl)n1 [Irsogladine, reference compound]",53
